The source of these data is patent US10793551B2, “Benzimidazole-indole inhibitors of Mnk1 and Mnk2” (eFFECTOR Therapeutics, Inc., priority 2017, dated 2020).

Each structure is given as a SMILES string.

This experiment deals with T1, MNK.
T1 construct: 10 nM recombinant MNK1 (Life Technologies, PR9138A)
Briefly: MNK Biochemical Enzymatic Assay (ADP-Glo kinase assay). The note with it: recombinant MNK1 (300 μM ATP) / MNK2 (10 μM ATP) described; table does not say which isoform; read-out: MNK Biochemical Enzymatic Assay (IC50) Potency. As to the method: Compounds are screened for MNK inhibition using the ADP-Glo kinase assay kit (Promega, catalogue No. V9101). All kinase reactions are performed in Reaction Buffer E (15 mM HEPES pH7.4, 20 mM NaCl, 1 mM EGTA, 10 mM MgCl2, 0.1 mg/ml BGG, and 0.02% Tween-20). Final MNK1 reactions contained 10 nM recombinant MNK1 (Life Technologies, PR9138A), 100 μM MNK substrate peptide Ac-TATKSGSTTKNR-NH2 (American Peptide Company), 300 μM ATP, and varying concentrations of the inhibitory compound of interest. Final MNK2 reactions contained 3 nM recombinant MNK2 (Life Technologies, PV5607), 50 μM MNK substrate peptide Ac-TATKSGSTTKNR-NH2 (American Peptide Company), 10 μM ATP, and varying concentrations of the inhibitory compound of interest. Final DMSO concentration in each reaction is 1%.
Kinase reactions are carried out in 96-well half-area white flat-bottom polystyrene plates in a final volume of 25 al. MNK1/2 enzymes are pre-incubated with compound and peptide substrate for 5 minutes prior to the addition of ATP. After the addition of ATP, kinase reactions are incubated at room temperature for 40 minutes. Reactions are subsequently stopped by the addition of 25 al of ADP-Glo Reagent and incubating for an additional 40 minutes. The final luminescent signal used for kinase activity readout is produced by the addition of 45 al of Kinase Detection Reagent (ADP-Glo kit, Promega) and incubating for 40 minutes. The luminescent signal is detected using a Victor 2 multilabel counter (Perkin Elmer) and the concentration of compound necessary to achieve inhibition of enzyme activity by 50% (IC50) is calculated using signals from an 8-point compound dilution series.
To this end, IC50 values of less than 1 μM are labeled as “+++”, from 1 to 10 μM are labeled as “++”, and from […] are labeled as “+”.
For the compound `CC(C)Cc1c(C(N)=O)ccc2c1ccn2-c1ncnc(N)c1Cl` [Compound 8F, 1-(6-amino-5-chloropyrimidin-4-yl)-4-isobutyl-1H-indole-5-carboxamide], the IC50 was 10 to 100 µM. On to `CC(C)Cc1c(C(N)=O)ccc2c(-c3ncnc(N)c3Cl)cn(C)c12` [Compound 9F, 3-(6-amino-5-chloropyrimidin-4-yl)-7-isobutyl-1-methyl-1H-indole-6-carboxamide], for which the IC50 is less than 1 µM.

Turning to `CC(C)Cc1c(C(=O)N(C)C)ccc2c1ncn2-c1ncnc(N)c1Cl` [Compound 10F, 1-(6-amino-5-chloropyrimidin-4-yl)-4-isobutyl-N,N-dimethyl-1H-benzo[d]imidazole-5-carboxamide], the IC50 is 1 to 10 µM.

Consider `CC(C)Cc1c(C(=O)N(C)C)ccc2c1ncn2-c1cc(N)ncn1` [Compound 11F, 1-(6-aminopyrimidin-4-yl)-4-isobutyl-N,N-dimethyl-1H-benzo[d]imidazole-5-carboxamide], for which the IC50 was 1 to 10 µM. The value for `CC(C)Cc1c(C(N)=O)ccc2c1cnn2-c1ncnc(N)c1Cl` [Compound 12F, 1-(6-amino-5-chloropyrimidin-4-yl)-4-isobutyl-1H-indazole-5-carboxamide] was 1 to 10 µM; that for `CC(C)Cc1c(C(N)=O)ccc2c1ncn2-c1ncnc(N)c1Cl` [Compound 13F, 1-(6-amino-5-chloropyrimidin-4-yl)-4-isobutyl-1H-benzo[d]imidazole-5-carboxamide] was 1 to 10 µM.
